Reference: patent US20180161459A1, “Methods of Screening for Drugs to Prevent Noise-Induced Hearing Loss” (Sound Pharmaceuticals Incorporated, priority 2015, published 2018)

Columns and labels:
human subjects [1] = assay: Calibrated sound challenge: temporary threshold shift (TTS) by serial pure tone audiometry, randomized double-blinded placebo-controlled Phase 2 study; format: in vivo
Experimental: (§1) A study was performed to evaluate the safety and efficacy of an orally delivered candidate composition in human subjects. The candidate composition ebselen (aka. SPI-1005) was evaluated for efficacy using the methods disclosed herein. Ebselen or placebo was administered in a randomized double-blinded study to subjects, who were then exposed to a calibrated sound or noise challenge. Post-sound exposure pure tone audiometry was compared with baseline (i.e., immediately pre-sound exposure) testing to determine group mean level hearing threshold shift changes between treated and placebo groups. The single center, randomized, double-blinded, placebo-controlled study enrolled 83 subjects, all between the ages of 18 and 31. All enrolled subjects ranged from having slight hearing loss (less than or equal to 25 dB HL) to normal hearing.
Each subject was instructed to avoid non-occupational sound exposure (e.g., concerts, firearms, fireworks, power tools) during the 24-hour period preceding baseline testing and throughout the duration of the study. Vital signs (i.e., heart rate, blood pressure, respirations, temperature) were within normal limits for each subject. Subjects had conventional audiologic assessments at baseline consisting of: (a) pure tone audiometry to confirm that subjects had symmetric hearing with air conduction thresholds no worse than 25 dB HL at frequencies between 0.25 to 8 kHz bilaterally, (b) no significant threshold asymmetry (i.e. greater than 15 dB) between any subject's ears at any tested frequency,(c) no significant air-bone gaps (i.e. greater than 10 dB). Bone conduction testing with masking as conducted at screening at 250, 500, 1000, 2000, or 4000 Hz if the air-conduction threshold was greater than 15 dB HL, and (d) Type A tympanograms bilaterally, defined as a range of −140 to +40 daPa based on the 90% range for adults. Subjects with pure tone audiometry hearing thresholds>25 dB HL at any tested frequency (250, 500, 1000, 2000, 3000, 4000, 6000, and 8000 Hz) for either ear were excluded from the study.
Ebselen, or 2-phenyl-1,2-benzisoselenazol-3 (2H)-one, was selected as a candidate composition. The ebselen formulation was a capsule containing 200 mg of ebselen and 150 mg of the excipients microcrystalline cellulose, sodium croscarmellose, and magnesium sterate. Each subject received ebselen at one of three dosages (either 200 mg, 400 mg, or 600 mg) or received a placebo, delivered orally twice daily for four days, beginning two days prior to exposure to a controlled sound and continuing on the day of and on the day following the exposure to the controlled sound. The study was randomized to assign each subject to a treatment or placebo group. All subjects took 3 capsules in the morning (AM) and 3 capsules in the evening (PM) (each capsule either contained 200 mg ebselen or placebo), ideally 12 hours apart.
On Day 3 of the ebselen treatment, subjects underwent audiometric testing immediately prior to sound-exposure to establish their baseline hearing levels. Subjects listened to a 100 dBA SPL sound exposure delivered via insert earphones from a Personal Music Player (PMP, specifically an iPod®) for 4 continuous hours. The sound exposure method was similar to that discussed in Le Prell, C. et al., Ear & Hearing 33:e44-e58, 2012, hereby incorporated by reference in its entirety. The music levels were measured using Bruel & Kjaer type 4157 artificial ear couplers. Subjects listened to sound from music playlists with a choice of rock or pop music. No changes in volume or duration of the sound exposure were permitted. At 15 minutes, 75 minutes, 135 minutes, 195 minutes, 24 hours, and 1 week after sound exposure, subjects were tested for pure tone audiometric thresholds. Serial pure tone audiometry determined the incidence (greater or equal to 10 dB HL), severity (dB HL) and duration (up to 1 week post sound exposure) of the TTS. Audiometric data was collected at 250, 500, 1000, 2000, 3000, 4000, 6000, and 8000 Hz. […]

human subjects [2] = assay: Safety and tolerability of orally delivered ebselen in the Phase 2 study; format: in vivo; details: oral 200, 400 or 600 mg twice daily for four days; CBC, Chemistry-20, Chest X-ray
Experimental: as §1
Ebselen, or 2-phenyl-1,2-benzisoselenazol-3 (2H)-one, was selected as a candidate composition. […]
Side effects of the ebselen delivery were analyzed. Clinical signs and symptoms from physical exam were evaluated, such as shortness of breath, wheezing, coughing, hemoptysis, resting pulse oximetry, chest X-rays, and laboratory findings such as hematology, chemistry, and urinalysis. Exposure to ebselen was quantified from plasma by LC-MS/MS. […]

## O=c1c2ccccc2[se]n1-c1ccccc1 [ebselen, 2-phenyl-1,2-benzisoselenazol-3 (2H)-one]
Human subjects [1]; 1.25, 2.25 and 3.25 hours post sound exposure, 400 mg dose group, ITT
  TTS at 4 kHz vs. placebo at later time points: significantly reduced
Human subjects [1]; 15 minutes post 100 dBA SPL 4 h sound exposure, oral twice daily for four days, 600 mg dose most effective, ITT, placebo 60%
  TTS incidence (subjects with greater or equal to 10 dB HL shift in either ear): 20%
Human subjects [1]; 15 minutes post sound exposure, 400 mg dose most effective, ITT
  TTS averaged across all tested frequencies, or mean across 3, 4, 6 kHz or 4, 6, 8 kHz: clinically relevant reductions
Human subjects [1]; 15 minutes post sound exposure, oral twice daily for four days, 400 mg dose most effective, ITT, placebo 4.1
  TTS severity at 4 kHz: 1.3 dB HL
Human subjects [1]; all ebselen treatment groups compared with placebo, FIG. 2
  Incidence of subjects that returned to baseline hearing within 24 hours: greater incidence of subjects that returned to baseline hearing within 24 hours
Human subjects [1]; oral twice daily for four days, placebo 24 hrs
  TTS duration: 1.3 h
Human subjects [2]
  Tolerability / drug-related adverse events: well-tolerated with no drug-related adverse events
